The test relates to grapes (Vitis labrusca L.). Nature of the test: Volatility evaluation: injury to grapes from vapor exposure to treated wheat. The settings on record: wheat sprayed at 11200 g ae/ha; 24 hour vapor exposure at 40° C.; evaluated 7 days after exposure. In kind it is in vivo. The source says:
Method for evaluating the volatility of herbicide standards and the compounds derived from combining a carboxylic acid herbicide with either a tetraalkylammonium or an (arylalkyl)trialkylammonium hydroxide.
Four pots of wheat (Triticum aestivum L.) grown in 4 inch square pots were sprayed at 11200 g ae/ha with each of the different forms of 2,4-D. Treatments were applied with a tracksprayer manufactured by Allen Machine Works. The sprayer utilized an 8002E spray nozzle, spray pressure of 262 kPa pressure and speed of 1.5 mph (2.4 km/h) to deliver 187 L/Ha. The nozzle height was 46 cm above the plant canopy. The growth stage of the wheat was 1 to 2 leaf. The wheat plants were allowed to thoroughly dry to ensure that none of the spray solution was present when they were moved into a clean pot flat. A known sensitive species, grapes (Vitis labrusca L.) were placed at the opposite end of the flat. All of the pots were covered with a humidome with small ½ inch (1.27 cm) diameter holes cut into the end where the wheat was placed and a small box fan powered with a battery in the other end to pull air across the treated wheat plants and over the top of grapes. […] A 24 hour exposure period was used after which the sensitive plants were then removed and placed in the greenhouse and evaluated for injury from vapor exposure to the treatments.

`CNC.COc1c(Cl)ccc(Cl)c1C(=O)O` [Dicamba DMA]: the “% Injury to grapes from vapor exposure” value came out at 70%.

Source of the values: US10278394B2, “Compounds derived from herbicidal carboxylic acids and tetraalkylammonium or (arylalkyl)trialkylammonium hydroxides” (Dow AgroSciences LLC, priority 2007, dated 2019).
